In US10576084B2, “Salt of fused heterocyclic derivative and crystal thereof” (KISSEI PHARMACEUTICAL CO., LTD., priority 2010, dated 2020):
Structures can show the parent of a compound that is named as a salt.

Columns and labels:
[1] = assay type: physicochemical; settings: for saturation solubility in 1st fluid: pH 1.2; for saturation solubility in 2nd fluid: pH 6.8
Method: Saturation Solubility Test
The compound (A) obtained in Example 2, the compound (B) crystals obtained in Comparative Example 2, and the compound (C) obtained in Comparative Example 3 were suspended in water, or in 1st fluid for dissolution test (hereinafter, referred to as “1st fluid”) or 2nd fluid (hereinafter, referred to as “2nd fluid”) described in the Reagents·Test Solutions for General Tests, the Japanese Pharmacopoeia, 15th Edition. The suspensions were incubated at 37° C. After filtering a part of the suspensions, the concentrations of the resulting filtrates were measured by HPLC, and the saturation solubilities were calculated and compared. The HPLC measurement conditions are as follows.
• Detector: Ultraviolet and visible spectrophotometer /wavelength: 225 nm • Column: GL Science Inertsil ODS-3,5 μm, 4.6×250 mm • Column temperature: a constant temperature of around 35° C. • Flow rate: 1.0 mL/min • Mobile phase A: 10 mM potassium dihydrogen phosphate aqueous solution adjusted to pH 5.5 with potassium hydroxide aqueous solution • Mobile phase B: Acetonitrile • Mobile phase ratio 0 to 30 min: mobile phase A/mobile phase B=70/30
The saturation solubility values of compound (A), compound (B) crystals, and compound (C) in water, 1st fluid, and 2nd fluid are shown in Table 2. […] The saturation solubility of compound (A) in 1st fluid was about 30 times and about 2 times higher than those of compound (B) crystals and compound (C), respectively. In 2nd fluid, the saturation solubility of compound (A) was about 10 times and about 70 times higher than those of compound (B) crystals and compound (C), respectively.

in vivo = experiment: in vivo; parameters: species or system SD rats; settings: male, SD, rat; for maximum drug concentration time (Tmax): po, 3 mg/kg
Method: Assay for Oral Absorbability
1) Preparation of Sample for Drug Concentration Measurement by Administration through Tail Vein
SD rats (Charles River, male, 7 weeks of age, 170 to 210 g) were used as experimental animals after fasting the rats overnight. N,N-dimethylacetamide (0.2 mL), saline (0.798 mL) and 2N-NaOH (0.002 mL) were added in these amounts with respect to 1 mg of the compound (B) to prepare a 1.0 mg/mL solution. The solution was then administered in a 1 mL/kg dose (1 mg/kg) through the tail vein under no anesthesia (3 samples). The intravenous administration through tail was performed using a 26G injection needle and a 1 mL syringe. Blood was collected through the subclavian veins after 2, 15, 60, 120, 240 and 360 minutes from the intravenous administration through tail. The blood was centrifuged, and the plasma was used as a sample for blood drug concentration measurement.
2) Preparation of Sample for Drug Concentration Measurement by Oral Administration
SD rats (Charles River, male, 7 weeks of age, 220 to 290 g) were used as experimental animals after fasting the rats overnight. A 0.5% methylcellulose aqueous solution (5 mL) was added with respect to 3 mg of compound (A) or compound (B) (in terms of a free compound) to prepare a 0.6 mg/mL drug solution. Each solution was orally administered to the rats in a 5 mL/kg dose (3 mg/kg) (3 samples each). The oral administration was performed using a rat sonde and a 2.5-mL syringe. […]
A suitable internal standard substance solution (0.1 mL) was added to the blood plasma (0.025 mL) obtained in 1) and 2) using an ordinary method. […] Blood plasma drug concentration was measured using the LC-MS/MS technique under the conditions below. […]
Bioavailability (%) was calculated from the value of the area under the blood drug concentration-time curve determined by using a WinNonlin Professional (Pharsight Corporation) from the blood drug concentration at each time point obtained as above after the intravenous administration of the compound (B) through tail and the oral administration of the compound (A) or the compound (B).

[2] = Stability test (storage under 90° C. open conditions, purity by HPLC); assay type: physicochemical
Method: Stability Test The compound (A) obtained in Example 2 was stored under 90° C. open conditions to examine stability. In stability measurement, the purity of a sample was measured by HPLC at the initial point and after 8 days, and the results were compared. The HPLC measurement conditions are as follows. Measurement Conditions • Detector: Ultraviolet and visible spectrophotometer/wavelength: 225 nm • Column: GL Science Inertsil ODS-3,5 μm, 4.6×250 mm • Column temperature: Constant temperature around 35° C. • Flow rate: 1.0 mL/min • Mobile phase A: 10 mM potassium dihydrogen phosphate aqueous solution adjusted to pH 5.5 with potassium hydroxide aqueous solution • Mobile phase B: Acetonitrile • (Mobile phase ratios are shown in Table 4) • Area measurement range: 54 minutes from the start of the analysis. Areas of the peaks in the blank were excluded from the calculations.

Compound: COc1cc(F)c(-n2c(=O)[nH]c3csc(C(=O)O)c3c2=O)cc1OCc1c(OC)ccc(F)c1F.COc1cc(F)c(-n2c(=O)[nH]c3csc(C(=O)O)c3c2=O)cc1OCc1c(OC)ccc(F)c1F.c1ccc(CNCCNCc2ccccc2)cc1 [compound (C), 3-[2-Fluoro-5-(2,3-difluoro-6-methoxybenzyloxy)-4-methoxyphenyl]-2,4-dioxo-1,2,3,4-tetrahydrothieno[3,4-d]pyrimidine-5-carboxylic acid.1/2N,N′-dibenzylethylenediamine salt, reference compound]
- saturation solubility in water [1]: 68 µg/mL
- saturation solubility in 1st fluid [1]: 2 µg/mL
- saturation solubility in 2nd fluid [1]: 52 µg/mL

Compound: COc1cc(F)c(-n2c(=O)[nH]c3csc(C(=O)O)c3c2=O)cc1OCc1c(OC)ccc(F)c1F (single isomer, unassigned) [compound (B), 3-[2-fluoro-5-(2,3-difluoro-6-methoxybenzyloxy)-4-methoxyphenyl]-2,4-dioxo-1,2,3,4-tetrahydrothieno[3,4-d]pyrimidine-5-carboxylic acid, reference compound]
- maximum drug concentration time (Tmax) (in vivo): 3.33 h
- saturation solubility in water [1]: 7 µg/mL
- saturation solubility in 1st fluid [1]: 0.14 µg/mL
- saturation solubility in 2nd fluid [1]: 367 µg/mL

Compound: COc1cc(F)c(-n2c(=O)[nH]c3csc(C(=O)O)c3c2=O)cc1OCc1c(OC)ccc(F)c1F (single isomer, unassigned) [compound (A), 3-[2-fluoro-5-(2,3-difluoro-6-methoxybenzyloxy)-4-methoxyphenyl]-2,4-dioxo-1,2,3,4-tetrahydrothieno[3,4-d]pyrimidine-5-carboxylic acid choline salt]
- bioavailability (in vivo): ~59%
- maximum drug concentration time (Tmax) (in vivo): 0.583 h
- saturation solubility in water [1]: 4165 µg/mL
- saturation solubility in 1st fluid [1]: 4 µg/mL
- saturation solubility in 2nd fluid [1]: 3738 µg/mL
- Purity (%) after 8 days ([2]; after 8 days under 90° C. open conditions): 99.6%
- Purity (%) at initial point ([2]; initial point, before storage): 99.6%
